# According to PubChem BioAssay AID1963851 (Molecular Pharmacology Branch, DTP, NCI, 2024):
# Tested on: 188146-221-R-J1-PDC complex spheroid viability
# Assay: Anticancer human tumor 188146-221-R-J1-PDC patient-derived colon adenocarcinoma cell line growth inhibition [POLQ]
# Settings: for IC50: curve of first compound; for viability, T/C: stronger effect = lower value
# Experimental: Multicellular complex tumor spheroid response to Polymerase (POL) inhibitors (novobiocin, ART-558, RP6685) in combination with a variety of drugs and investigational agents in selected tumor cell lines
# The POL inhibitors (novobiocin, ART-558, and RP6685) were evaluated both individually and in combination with standard of care and investigational anticancer small molecules within a complex spheroid model of solid tumors. . Complex spheroids include a stromal component modeled by human endothelial cells (HUVEC) and fibroblasts modeled by human mesenchymal stem cells (MSCs). The concentration ranges selected for each drug and investigational agent were based upon clinically achievable concentrations if the clinical Cmax of the agent was known.
# Compounds. The drugs and investigational agents: novobiocin (NSC847541), ART-558 (NSC835418), RP-6685 (NSC848927), peposertib (NSC802822), ceralasertib (NSC780249), elimusertib (NSC800525), camonsertib (NSC841442), AZD-1390 (NSC803789), olaparib (NSC753686), talazoparib (NSC767125), rucaparib (NSC756644), sotorasib (NSC818433), MRTX-1133 (NSC836407), SN-38 (NSC673596), topotecan (NSC609699), epotoside (NSC141540), doxorubicin (NSC123127), gemcitabine (NSC613327), 5-fluorouracil (NSC19893), paclitaxel (NSC125973), vemurafenib (NSC761431), MSA-2 (NSC828583), SN-011 (NSC837082), adavosertib (NSC754352), prexasertib (NSC758257), carboplatin (NSC241240) and oxaliplatin (NSC266046), were obtained from the National Cancer Institute (NCI) Developmental Therapeutics Program Chemical Repository (21). The FDA-approved anticancer drug set is available from the Developmental Therapeutics Program at https://dtp.cancer.gov/organization/dscb/obtaining/. […] The stock solutions were prepared in dimethyl sulfoxide (DMSO, Sigma-Aldrich, St. Louis, MO, cat. D2650), except for the platinum compounds which were prepared in saline (Quality Biological, Gaithersburg, MD, cat. 114-055-101), at 800-fold the tested concentration and stored at -70 degrees C prior to their use. All drugs and investigational agents were tested over a range starting from a high concentration at or near the clinical Cmax and decreasing in half-log increments. If the clinical Cmax for an agent had not been determined, the highest concentration tested was 10 microM, except for SN-38, which was tested at a high concentration of 1 microM.
# Cell Culture. All cells were maintained in an incubator at 37 degrees C and 5% CO2 with 95% humidity. The PDC lines were cultured according to standard operating procedures established by the NCI PDMR (https://pdmr.cancer.gov). Table 3 of the manuscript, lists the cell lines along with the number of the three cell types plated to form the mct-spheroids and media for tumor cell growth. After thawing, all PDC lines, except 997537-175-T-J1-PDC and 415267-285-R-J2-PDC, were cultured in Matrigel-coated flasks prepared with a working solution of 1X Ham's F-12 nutrient mix, without supplementation (Thermo Fisher Scientific, cat. 11765054), 100 U/mL penicillin-streptomycin (Thermo Fisher Scientific, cat. 15140122), and 2.5% Matrigel (Corning Inc., Corning, NY, cat. 354248) for the first three passages. The two PDC lines 997537-175-T-J1-PDC and 415267-285-R-J2-PDC were cultured on uncoated flasks. The 857933-349-R-J2-PDC line was cultured in 6C/Colon 1B media containing advanced DMEM/F-12 (Thermo Fisher Scientific, cat. 12634028), 10 mM HEPES (Thermo Fisher Scientific, cat. 15630080), 1X GlutaMAX supplement (Thermo Fisher Scientific, cat. 35050061), 0.1 mg/mL primocin (InvivoGen, San Diego, CA, cat. ant-pm-2), 10% defined fetal bovine serum, heat inactivated (HyClone Laboratories Inc., Logan, UT, cat. SH30070.03HI), 50% L-WRN conditioned media (ATCC, cat. CRL-3276), 1.25 mM N-Acetyl-L-cysteine (Sigma-Aldrich, cat. A9165), 10 mM nicotinamide (Sigma-Aldrich, cat. N0636), 1X B-27 supplement (Thermo Fisher Scientific, cat. 17504044), 1X N-2 supplement (Thermo Fisher Scientific, cat. […]
# [1] = second compound 0.0316 µM, first compound 0.0316 µM
# [2] = second compound 0.0316 µM, first compound 0.1 µM
# [3] = second compound 0.0316 µM, first compound 0.316 µM
# [4] = second compound 0.0316 µM, first compound 1 µM
# [5] = second compound 0.0316 µM, first compound 3.16 µM
# [6] = second compound 0.0316 µM, first compound 10 µM
# [7] = second compound 0.1 µM, first compound 0.0316 µM
# [8] = second compound 0.1 µM, first compound 0.1 µM
# [9] = second compound 0.1 µM, first compound 0.316 µM
# [10] = second compound 0.1 µM, first compound 1 µM
# [11] = second compound 0.1 µM, first compound 3.16 µM
# [12] = second compound 0.1 µM, first compound 10 µM
# [13] = second compound 0.316 µM, first compound 0.0316 µM
# [14] = second compound 0.316 µM, first compound 0.1 µM
# [15] = second compound 0.316 µM, first compound 0.316 µM
# [16] = second compound 0.316 µM, first compound 1 µM
# [17] = second compound 0.316 µM, first compound 3.16 µM
# [18] = second compound 0.316 µM, first compound 10 µM
# [19] = second compound 1 µM, first compound 0.0316 µM
# [20] = second compound 1 µM, first compound 0.1 µM
# [21] = second compound 1 µM, first compound 0.316 µM
# [22] = second compound 1 µM, first compound 1 µM
# [23] = second compound 1 µM, first compound 3.16 µM
# [24] = second compound 1 µM, first compound 10 µM
# [25] = second compound 3.16 µM, first compound 0.0316 µM
# [26] = second compound 3.16 µM, first compound 0.1 µM
# [27] = second compound 3.16 µM, first compound 0.316 µM
# [28] = second compound 3.16 µM, first compound 1 µM
# [29] = second compound 3.16 µM, first compound 3.16 µM
# [30] = second compound 3.16 µM, first compound 10 µM
# [31] = second compound 10 µM, first compound 0.0316 µM
# [32] = second compound 10 µM, first compound 0.1 µM
# [33] = second compound 10 µM, first compound 0.316 µM
# [34] = second compound 10 µM, first compound 1 µM
# [35] = second compound 10 µM, first compound 3.16 µM
# [36] = second compound 10 µM, first compound 10 µM
# 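Further: spheroids exposed to compounds for seven days.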
# 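Wherever viability, T/C is given: 100% = DMSO vehicle control viability.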
compound,measurement,setting,value
COc1cc(C2c3cc4c(cc3C(OC3OC5COC(C)OC5C(O)C3O)C3COC(=O)C23)OCO4)cc(OC)c1O (stereo unspecified) + Cc1cccc(N(C)C(=O)C2C(O)CCN2c2nc(C)cc(C(F)(F)F)c2C#N)c1,IC50,second compound 0.0316 µM,887 nM
same,IC50,second compound 0.1 µM,789 nM
same,IC50,second compound 0.316 µM,723 nM
same,IC50,second compound 1 µM,748 nM
same,IC50,second compound 3.16 µM,664 nM
same,IC50,second compound 10 µM,483 nM
same,"viability, T/C",[1],115%
same,"viability, T/C",[2],99.9%
same,"viability, T/C",[3],77.3%
same,"viability, T/C",[4],47.6%
same,"viability, T/C",[5],27.5%
same,"viability, T/C",[6],25.9%
same,"viability, T/C",[7],111%
same,"viability, T/C",[8],99.2%
same,"viability, T/C",[9],77.8%
same,"viability, T/C",[10],43.5%
same,"viability, T/C",[11],25.1%
same,"viability, T/C",[12],28.3%
same,"viability, T/C",[13],108%
same,"viability, T/C",[14],102%
same,"viability, T/C",[15],71.7%
same,"viability, T/C",[16],43%
same,"viability, T/C",[17],26.4%
same,"viability, T/C",[18],28.7%
same,"viability, T/C",[19],108%
same,"viability, T/C",[20],104%
same,"viability, T/C",[21],70.5%
same,"viability, T/C",[22],45.6%
same,"viability, T/C",[23],27.2%
same,"viability, T/C",[24],30.8%
same,"viability, T/C",[25],101%
same,"viability, T/C",[26],103%
same,"viability, T/C",[27],70.1%
same,"viability, T/C",[28],40.6%
same,"viability, T/C",[29],29.4%
same,"viability, T/C",[30],31.1%
same,"viability, T/C",[31],93.1%
same,"viability, T/C",[32],79.6%
same,"viability, T/C",[33],61.2%
same,"viability, T/C",[34],32.4%
same,"viability, T/C",[35],29.1%
same,"viability, T/C",[36],32.8%
O=C(c1cc(Cc2n[nH]c(=O)c3ccccc23)ccc1F)N1CCN(C(=O)C2CC2)CC1 + Cc1cccc(N(C)C(=O)C2C(O)CCN2c2nc(C)cc(C(F)(F)F)c2C#N)c1,IC50,second compound 0.0316 µM,> 10000 nM
same,IC50,second compound 0.1 µM,> 10000 nM
same,IC50,second compound 0.316 µM,> 10000 nM
same,IC50,second compound 1 µM,> 10000 nM
same,IC50,second compound 3.16 µM,> 10000 nM
same,IC50,second compound 10 µM,> 10000 nM
same,"viability, T/C",[1],109%
same,"viability, T/C",[2],105%
same,"viability, T/C",[3],108%
same,"viability, T/C",[4],92.8%
same,"viability, T/C",[5],93.9%
same,"viability, T/C",[6],73.9%
same,"viability, T/C",[7],108%
same,"viability, T/C",[8],103%
same,"viability, T/C",[9],101%
same,"viability, T/C",[10],101%
same,"viability, T/C",[11],89.5%
same,"viability, T/C",[12],88.8%
same,"viability, T/C",[13],105%
same,"viability, T/C",[14],102%
same,"viability, T/C",[15],95.6%
same,"viability, T/C",[16],101%
same,"viability, T/C",[17],90.2%
same,"viability, T/C",[18],77.8%
same,"viability, T/C",[19],109%
same,"viability, T/C",[20],106%
same,"viability, T/C",[21],96.7%
same,"viability, T/C",[22],103%
same,"viability, T/C",[23],87.7%
same,"viability, T/C",[24],78.4%
same,"viability, T/C",[25],89.5%
same,"viability, T/C",[26],102%
same,"viability, T/C",[27],106%
same,"viability, T/C",[28],86.7%
same,"viability, T/C",[29],93.1%
same,"viability, T/C",[30],76.9%
same,"viability, T/C",[31],99.8%
same,"viability, T/C",[32],90.1%
same,"viability, T/C",[33],96.3%
same,"viability, T/C",[34],98.2%
same,"viability, T/C",[35],95.6%
same,"viability, T/C",[36],82.1%
O=c1[nH]cc(F)c(=O)[nH]1 + Cc1cccc(N(C)C(=O)C2C(O)CCN2c2nc(C)cc(C(F)(F)F)c2C#N)c1,IC50,second compound 0.0316 µM,2440 nM
same,IC50,second compound 0.1 µM,1380 nM
same,IC50,second compound 0.316 µM,1820 nM
same,IC50,second compound 1 µM,1680 nM
same,IC50,second compound 3.16 µM,1340 nM
same,IC50,second compound 10 µM,1690 nM
same,"viability, T/C",[1],107%
same,"viability, T/C",[2],91.7%
same,"viability, T/C",[3],73.5%
same,"viability, T/C",[4],57.7%
same,"viability, T/C",[5],50.8%
same,"viability, T/C",[6],34.5%
same,"viability, T/C",[7],102%
same,"viability, T/C",[8],96.7%
same,"viability, T/C",[9],73.9%
same,"viability, T/C",[10],52.6%
same,"viability, T/C",[11],45%
same,"viability, T/C",[12],37%
same,"viability, T/C",[13],93%
same,"viability, T/C",[14],87%
same,"viability, T/C",[15],80%
same,"viability, T/C",[16],57%
same,"viability, T/C",[17],43.5%
same,"viability, T/C",[18],34.9%
same,"viability, T/C",[19],79.8%
same,"viability, T/C",[20],84.6%
same,"viability, T/C",[21],74.3%
same,"viability, T/C",[22],57.1%
same,"viability, T/C",[23],41.7%
same,"viability, T/C",[24],37.5%
same,"viability, T/C",[25],90.2%
same,"viability, T/C",[26],82.5%
same,"viability, T/C",[27],72.9%
same,"viability, T/C",[28],50.2%
same,"viability, T/C",[29],44.7%
same,"viability, T/C",[30],36.2%
same,"viability, T/C",[31],91.1%
same,"viability, T/C",[32],85.5%
same,"viability, T/C",[33],76.6%
same,"viability, T/C",[34],51.7%
same,"viability, T/C",[35],47.9%
same,"viability, T/C",[36],34.4%
